Data as given in US10538794B2, “Oligosaccharide libraries and methods of production” (Emory University, priority 2016, dated 2020).
Entries after “also recorded” stand apart in the source; their conditions may differ.

Legend:
cells = experiment: CORA with the isomer Ac3GlcNAc-β-Bn: secretion of Bn-O-glycans; assay type: cell-based
Procedure: CORA is an approach for both amplifying and profiling the mucin-type O-glycome in living cells. […] For example, MS analyses of β-eliminated O-glycans from WEHI-3 cells have not identified sialyl-LeX on core 2 O-glycans, a critical component on PSGL-1 recognized by P-selectin, which binds WEHI-3 cells. […] Thus the novel structures identified are natural O-glycans, mostly present on glycoproteins at low abundance.
CORA was performed on cells with mutant or wild-type C1galt1c1 (Cosmc), a chaperone known to be essential for T-synthase activity. Only cells with functional Cosmc and active T-synthase secreted Bn-O-glycans when we administered Ac3GalNAc-α-Bn (FIG. 2A-D).
Compound was added to complete media, and media was collected after incubation with cells. Media was run over a 10-kDa centrifugal filter (Amicon Ultra 4, Millipore) for ˜30 min at 2,465 g, and flow-through was collected. Bn-O-glycans were subsequently purified from flow-through with a Sep-Pak 3-cc C18 cartridge (Waters) by gravity chromatography. […]
(§1) Dried samples were permethylated. […] Spotted: 0.5 μl of matrix (10 mg/ml […] (Sigma), 50% (vol/vol) acetonitrile, 0.1% (vol/vol) TFA) and 0.5 μl of sample on an Anchorchip target plate, air dried the spots and analyzed by MALDI-TOF-MS using an Ultraflex-II TOF-TOF system (Bruker Daltonics). […]

[1] = test system: breast cancer cells (MDA-MB-231); experiment: CORA: Bn-O-glycans in media of MDA-MB-231 cells incubated with precursor, MALDI-TOF-MS; assay type: cell-based; settings: MDA-MB-231, 0-250 μM; for lowest concentration at which Bn-O-glycans with the predicted sialylated core 2 structure were observed: 3 d
Procedure: (§2) To assess whether peracetylation of Bn-α-GalNAc enhances uptake and subsequent sensitivity, breast cancer cells (MDA-MB-231) were incubated with 0-250 μM Ac3GalNAc-α-Bn or Bn-α-GalNAc for 3 d. […] Further, peracetylation of Bn-α-GalNAc was stable in complete media for at least 3 d. Thus, peracetylation improved sensitivity, and at such low concentrations potential side effects should be limited, as explored below.
To optimize conditions, MDA-MB-231 cells were cultured with 0-250 μM Ac3GalNAc-α-Bn for 2-4 d. […] Thus, CORA should be performed with low concentrations of Ac3GalNAc-α-Bn. For most subsequent studies, cells were incubated with 50 μM Ac3GalNAc-α-Bn for 3 d.
Ac3GalNAc-α-Bn or Bn-α-GalNAc was dissolved to 50 or 100 mM in DMSO and further diluted to 5-250 μM in complete media with 5% (vol/vol) FBS, except for HUVEC and human dermal fibroblast cultures, which were incubated in ATCC preformulated media. Media with compound was administered 1 d (most cells) or 2 d (HUVECs and human dermal fibroblasts) after seeding. Cells were then incubated for 2-4 d with compound before media was collected.
(§3) Compound was added to complete media, and media was collected after incubation with cells. Media was run over a 10-kDa centrifugal filter (Amicon Ultra 4, Millipore) for ˜30 min at 2,465 g, and flow-through was collected. Bn-O-glycans were subsequently purified from flow-through with a Sep-Pak 3-cc C18 cartridge (Waters) by gravity chromatography. The column was equilibrated by two washes with 2 ml of acetonitrile and four washes with 2 ml of 0.1% (vol/vol) trifluoracetic acid (TFA). Media was applied and the column was washed four times with 2 ml of 0.1% (vol/vol) TFA for each wash. Bn-O-glycans were then eluted with two 1.5-ml applications of 50% (vol/vol) acetonitrile, 0.1% (vol/vol) TFA. Eluent was divided into three fractions, concentrated by CentriVap to remove organic solvents, and lyophilized.
Dried samples were permethylated. NaOH-DMSO (200 μl) slurry was added followed by 200 μl of methyl iodide to samples. Samples were shaken for 30 min and then spun down at 5,000 g for 5 min. Supernatant was collected and chloroform extraction was performed to isolate permethylated glycans. Chloroform (500 μl) and 500 μl of water was added to supernatant. The samples were mixed and centrifuged at 5,000 g for 1 min. Two more washes were performed with 500 μl of water each before evaporating chloroform by CentriVap for 30 min. Bn-O-glycans were then resuspended in 25 or 50 μl of 50% (vol/vol) methanol. Spotted: 0.5 μl of matrix (10 mg/ml […] (Sigma), 50% (vol/vol) acetonitrile, 0.1% (vol/vol) TFA) and 0.5 μl of sample on an Anchorchip target plate, air dried the spots and analyzed by MALDI-TOF-MS using an Ultraflex-II TOF-TOF system (Bruker Daltonics). […]

Molt-4 = experiment: CORA: Bn-O-glycans from media of Molt-4 cells, MALDI-TOF-MS; assay type: cell-based; settings: Molt-4, 50 μM, 3 d
Procedure: (§4) Adherent (HEK293) and suspension (Molt-4) cells were cultured in complete media containing 50 μM Ac3GalNAc-α-Bn or vehicle (dimethyl sulfoxide (DMSO)) for 3 d. Putative Bn-O-glycans from the media were separated from larger material with a cutoff membrane, purified by C18 chromatography, permethylated and analyzed by MALDI-TOF-MS. Here as elsewhere, the permethylated nonsulfated and/or nonphosphorylated glycans were analyzed.
as §3, with “Bn-O-glycans were then eluted with two 1.5-ml applications of 50% (vol/vol) acetonitrile, 0.1% (vol/vol) TFA. Eluent was divided into three fractions, concentrated by CentriVap to remove organic solvents, and lyophilized.” left out
as §1

HEK293 = experiment: CORA: Bn-O-glycans from media of HEK293 cells, MALDI-TOF-MS; assay type: cell-based; settings: HEK293, 50 μM, 3 d
Procedure: as §4
as §3, with “Bn-O-glycans were then eluted with two 1.5-ml applications of 50% (vol/vol) acetonitrile, 0.1% (vol/vol) TFA. Eluent was divided into three fractions, concentrated by CentriVap to remove organic solvents, and lyophilized.” left out
as §1

[2] = Stability of peracetylation in complete media; assay type: physicochemical
Procedure: as §2

peracetylation stable in complete media [2]	Compound	Bn-O-glycans secreted by cells incubated with the compound (cells)	lowest concentration at which Bn-O-glycans with the predicted sialylated core 2 structure were observed [1] [µM]	uptake and modification of the O-glycan precursor by glycosyltransferases (core 1- and core 2-based Bn-O-glycan compositions observed) (Molt-4)	uptake and modification of the O-glycan precursor by glycosyltransferases (core 1- and core 2-based Bn-O-glycan compositions observed) (HEK293)	effect of increasing concentration on Bn-O-glycan abundance ([1]; 2-4 d)	lowest concentration at which Bn-O-glycans in culture media were seen ([1]; 2 d) [µM]
–	CC(=O)N[C@H]1[C@H](OCc2ccccc2)O[C@H](COC(C)=O)[C@@H](OC(C)=O)[C@@H]1OC(C)=O [Ac3GlcNAc-β-Bn]	no glycans or a trisaccharide (Sia-Gal-GlcNAc-Bn) only; also recorded: no Bn-O-glycans or only the simple trisaccharide Neu5Ac-Gal-GlcNAc-Bn	–	–	–	–	–
–	CC(=O)N[C@H]1[C@@H](OCc2ccccc2)O[C@H](CO)[C@H](O)[C@@H]1O [Bn-α-GalNAc, reference compound]	–	250	–	–	–	–
at least 3 d	CC(=O)N[C@H]1[C@@H](OCc2ccccc2)O[C@H](COC(C)=O)[C@H](OC(C)=O)[C@@H]1OC(C)=O [Ac3GalNAc-α-Bn, peracetylated benzyl-α-N-acetylgalactosamine]	–	25	efficient uptake and modification	efficient uptake and modification	shifted abundance from disialylated to monosialylated core 2	5
